{
  "source": "patent US8044200B2",
  "about": "“Synthesis and purification of pteroic acid and conjugates thereof” (Endocyte, Inc., priority 2005, dated 2011)",
  "tested_on": "M109 cells",
  "experiment": "Effect of isolated folate-fluorescein conjugates on growth of solid tumors (subcutaneous M109 tumors in fluorescein-immunized mice)",
  "type": "in vivo",
  "settings": "female Balb/c mice preimmunized with KLH-fluorescein; s.c. M109 tumor; 500, 2000 or 5000 nmol/kg i.p., days 1-19; in combination with IL-2 and IFN-α; versus PBS control; FIG. 2",
  "method": "Six to eight-week old (˜20-22 grams) female Balb/c mice (8 mice/group) were immunized subcutaneously at multiple sites with fluorescein-labeled keyhole limpet hemocyanin (KLH) using a commercial saponin adjuvant (GPI-0100; Galenica). After assuring that anti-fluorescein antibody titers were high in all mice (as evidenced by the results of ELISA assays of serum samples of the mice), each animal was injected subcutaneously in the shoulder with 1×10^6 M109 cells (a syngeneic lung cancer cell line that expresses high levels of the folate receptor; day 0) following prior immunization with KLH-fluorescein. The immunizations with folate-fluorescein after tumor cell implantation consisted of 500, 2000, or 5000 nmol/kg of folate-fluorescein, conjugated via a gamma carboxyl-linked ethylene diamine bridge, given in 19 intraperitoneal doses at 24 hour intervals (days 1-19). Control animals were injected with phosphate buffered saline (PBS). A series of 5 daily injections (five times a week) for three weeks of 20,000 IU/day of recombinant human IL-2 were administered to all mice in order to stimulate the immune system. A series of 3 injections for three weeks of 25,000 U/day of recombinant human IFN-α were also administered to all mice. The efficacy of this immunotherapy was then evaluated by monitoring tumor volume (mm^3) using a caliper.",
  "data": [
    {"smiles": "Nc1nc2ncc(CNc3ccc(C(=O)NC(CCC(=O)NCCNC(=S)Nc4ccc5c(c4)C(=O)OC54c5ccc(O)cc5Oc5cc(O)ccc54)C(=O)O)cc3)nc2c(=O)[nH]1", "note": "(stereo not shown) [folate-fluorescein]", "values": [
      {"measurement": "growth of solid tumors (tumor volume)", "result": "significantly inhibited"}
    ]}
  ]
}
